Experimental findings from patent US8778925B2, “Pyridine and pyrimidine based compounds as Wnt signaling pathway inhibitors for the treatment of cancer” (Cancer Research Technology Ltd., priority 2008, dated 2014) are described below.

One data set has as its system Wnt pathway. Briefly: Luciferase reporter cell based assay (ER-DSH HEK293 cells). As to conditions: Homo sapiens, TCF-dependent transcription induced by estrogen (2 μM), reporter activity at 24 hours, read-out: IC50 in Luciferase reporter assay (ER-DSH HEK293 cells) assay described in Example 92. The method, then:
Inhibitory activity of the Wnt pathway was assessed using a luciferase reporter cell based assay. A luciferase reporter cell line was developed in HEK293 cells, which contained an estrogen receptor-DSH (ER-DSH) construct and a TCF-luciferase-IRES-GFP construct.
A high-throughput assay was performed by inducing TCF-dependent transcription in the ER-DSH HEK293 cell line by the addition of estrogen (2 μM) resulting in at least a 14-fold increase in reporter activity measured at 24 hours. […]
On the technique in general: Reporter assays use an easily measured gene product as a stand-in for the process of interest.
Consider `O=C(O)C1CCN(c2c(Cl)cncc2-c2ccccc2)CC1` [Example E87, 1-(3-chloro-5-phenylpyridin-4-yl)piperidine-4-carboxylic acid], for which the half-inhibitory concentration (IC50) is 740 nM.

On to `NC(=O)C1CCN(c2c(Cl)cncc2-c2ccc(F)cc2)CC1` [Example E50, 1-(3-chloro-5-(4-fluorophenyl)pyridin-4-yl)piperidine-4-carboxamide], for which the concentration for half-maximal inhibition (IC50) amounted to 110 nM.

For `Clc1cncc(Cl)c1N1CCC(c2ncco2)CC1` [Example E35, 2-(1-(3,5-dichloropyridin-4-yl)piperidin-4-yl)oxazole], the half-inhibitory concentration (IC50) was found to be 7660 nM.

Regarding `NC(=O)C1CCN(c2ccncc2-c2ccccc2)CC1` [Example E68, 1-(3-phenylpyridin-4-yl)piperidine-4-carboxamide], the IC50 was determined as 1150 nM.

In the case of `CC(=O)N1CCN(c2c(Cl)cncc2Cl)CC1` [Example E9, 1-(4-(3,5-dichloropyridin-4-yl)piperazin-1-yl)ethanone], the IC50 is 12100 nM.

For `COc1ccc(-c2cnccc2N2CCC(C(N)=O)CC2)cc1` [Example E37, 1-(3-(4-methoxyphenyl)pyridin-4-yl)piperidine-4-carboxamide], the IC50 was 1640 nM.

Take `COc1ccc(-c2cncnc2N2CCC(C(N)=O)CC2)cc1` [Example E85, 1-(5-(4-methoxyphenyl)pyrimidin-4-yl)piperidine-4-carboxamide]: the IC50 turned out to be 1580 nM.

As for `NC(=O)C1CCN(c2c(Br)cncc2Br)CC1` [Example E27, 1-(3,5-dibromopyridin-4-yl)piperidine-4-carboxamide], the IC50 stood at 210 nM.

Turning to `NC(=O)C1CCN(c2c(Cl)cncc2-c2ccncc2)CC1` [Example E65, 1-(5-chloro-3,4′-bipyridin-4-yl)piperidine-4-carboxamide], the IC50 was 440 nM.

Regarding `CNC(=O)C1CCN(c2c(Cl)cncc2Cl)CC1` [Example E1, 1-(3,5-dichloropyridin-4-yl)-N-methylpiperidine-4-carboxamide], the IC50 is 12600 nM.

For the compound `O=C1NCCC12CCN(c1c(Cl)cncc1Cl)CC2` [Example E59, 8-(3,5-dichloropyridin-4-yl)-2,8-diazaspiro[4.5]decan-1-one], the IC50 is 3430 nM.

For `COc1ccc(-c2cncc(Cl)c2N2CCC(C(N)=O)CC2)cc1OC` [Example E4, 1-(3-chloro-5-(3,4-dimethoxyphenyl)pyridin-4-yl)piperidine-4-carboxamide], the IC50 came to 170 nM.

For `NC(=O)C1CCN(c2c(Cl)cncc2Cl)C1` (stereo not shown) [Example E21, 1-(3,5-dichloropyridin-4-yl)pyrrolidine-3-carboxamide], the IC50 was determined as 760 nM.

Consider `NCCNC(=O)C1CCN(c2c(Cl)cncc2Cl)CC1` [Example E13, N-(2-aminoethyl)-1-(3,5-dichloropyridin-4-yl)piperidine-4-carboxamide], for which the half-inhibitory concentration (IC50) came to 7000 nM.

For the compound `CN(C)C(=O)C1CCN(c2c(Cl)cncc2Cl)CC1` [Example E2, 1-(3,5-dichloropyridin-4-yl)-N,N-dimethylpiperidine-4-carboxamide], the IC50 worked out at 30000 nM.

`Cc1nn(C)cc1-c1cncc(Cl)c1N1CCC(C(N)=O)CC1` [Example E47, 1-(3-chloro-5-(1,3-dimethyl-1H-pyrazol-4-yl)pyridin-4-yl)piperidine-4-carboxamide]: the IC50 was 440 nM.

Turning to `NC(=O)C1CCN(c2ccncc2Cl)CC1` [Example E12, 1-(3-chloropyridin-4-yl)piperidine-4-carboxamide], the IC50 was 22900 nM.

Turning to `NC(=O)C1CCN(c2ncncc2-c2ccccc2)CC1` [Example E33, 1-(5-phenylpyrimidin-4-yl)piperidine-4-carboxamide], the IC50 came out at 5000 nM.

For the compound `O=C1NCCC12CCN(c1c(Cl)cncc1-c1ccccc1)CC2` [Example E60, 8-(3-chloro-5-phenylpyridin-4-yl)-2,8-diazaspiro[4.5]decan-1-one], the IC50 amounted to 33 nM.

For `COc1ccc(-c2cncc(Cl)c2N2CCC(C(N)=O)CC2)cc1` [Example E43, 1-(3-chloro-5-(4-methoxyphenyl)pyridin-4-yl)piperidine-4-carboxamide], the IC50 turned out to be 32 nM.

As to `N#CC1CCN(c2c(Cl)cncc2-c2ccccc2)CC1` [Example E86, 1-(3-chloro-5-phenylpyridin-4-yl)piperidine-4-carbonitrile], the half-inhibitory concentration (IC50) was determined as 90 nM.

Regarding `NC(=O)C1CCN(c2ncncc2Br)CC1` [Example E29, 1-(5-bromopyrimidin-4-yl)piperidine-4-carboxamide], the IC50 was 16200 nM.

In the case of `COc1ccc(-c2cncc(Cl)c2N2CCC(C(N)=O)C2)cc1` (stereo not shown) [Example E74, 1-(3-chloro-5-(4-methoxyphenyl)pyridin-4-yl)pyrrolidine-3-carboxamide], the IC50 stood at 260 nM.

Test system in a further data set: not given
Assay: not given
Details: not given
The compound `O=C(c1ccccc1)N1CCN(c2c(Cl)cncc2Cl)CC1` came in with a melting point of 132 to 134 °C.

Compound `CC(=O)N1CCN(c2c(Cl)cncc2Cl)CC1` [Example E9, 1-(4-(3,5-dichloropyridin-4-yl)piperazin-1-yl)ethanone] showed a melting point of 144 to 146 °C.

The compound `O=C(NCCNc1c(Cl)cncc1Cl)C1CCN(c2c(Cl)cncc2Cl)CC1` [Example E5, 1-(3,5-dichloropyridin-4-yl)-N-(2-(3,5-dichloropyridin-4-ylamino)ethyl)piperidine-4-carboxamide] gave a melting point of 157 to 159 °C.

`N#CC1CCN(c2c(Br)cncc2Br)C1` (stereo not shown) [Example E23, 1-(3,5-dibromopyridin-4-yl)pyrrolidine-3-carbonitrile] came in with a melting point of 159 to 161 °C.

The compound `NC(=O)C1CCN(c2c(Cl)cncc2Cl)C1` (stereo not shown) [Example E21, 1-(3,5-dichloropyridin-4-yl)pyrrolidine-3-carboxamide] had a melting point of 161 to 163 °C.

The compound `O=C(C1CCN(c2c(Cl)cncc2Cl)CC1)N1CCNCC1` [Example E20, (1-(3,5-dichloropyridin-4-yl)piperidin-4-yl)(piperazin-1-yl)methanone] gave a melting point of 256 to 258 °C.

The compound `O=C(NCCN(Cc1ccccc1)Cc1ccccc1)C1CCN(c2c(Cl)cncc2Cl)CC1` [Example E17, N-(2-(dibenzylamino)ethyl)-1-(3,5-dichloropyridin-4-yl)piperidine-4-carboxamide] displayed a melting point of 147 to 149 °C.

As to `NC(=O)C1CCN(c2c(Br)cncc2-c2ccccc2)CC1` [Example E39, 1-(3-bromo-5-phenylpyridin-4-yl)piperidine-4-carboxamide], the melting point was 220 to 222 °C.

Compound `Cc1cncnc1N1CCC(C(N)=O)CC1` yielded a melting point of 182 to 184 °C.

In turn, `O=C(NCCN(CC1CCCCC1)CC1CCCCC1)C1CCN(c2c(Cl)cncc2Cl)CC1` [Example E18, N-(2-(bis(cyclohexylmethyl)amino)ethyl)-1-(3,5-dichloropyridin-4-yl)piperidine-4-carboxamide] registered a melting point of 236 to 238 °C.

In the case of `NC(=O)C1CCN(c2ncncc2Cl)CC1`, the melting point is 201 to 202 °C.

For `O=C(NCCNCC1CCCCC1)C1CCN(c2c(Cl)cncc2Cl)CC1` [Example E16, N-(2-(cyclohexylmethylamino)ethyl)-1-(3,5-dichloropyridin-4-yl)piperidine-4-carboxamide], the melting point fell in the range of 174 to 177 °C.

Take `NC(=O)C1CCN(c2ncncc2Br)CC1` [Example E29, 1-(5-bromopyrimidin-4-yl)piperidine-4-carboxamide]: the melting point fell in the range of 188 to 190 °C.

On to `O=C(NCCNC(=O)C1CCN(c2c(Cl)cncc2Cl)CC1)c1ccccc1` [Example E19, N-(2-benzamidoethyl)-1-(3,5-dichloropyridin-4-yl)piperidine-4-carboxamide], for which the melting point fell in the range of 209 to 211 °C.

What is called IC50 is the concentration needed to halve the response being measured. For orientation: melting point means the temperature of the solid-liquid transition.
